Data as given in ChEMBL document CHEMBL3872264, “Discovery of biphenyl imidazole derivatives as potent antifungal agents: Design, synthesis, and structure-activity relationship studies” (Bioorg Med Chem, 2017).
Converted amounts (≈) assume the structure as drawn.

Tests used:
Candida albicans [1] = test: Anti-fungal activity against Candida albicans SC5314 by broth microdilution method; assay type: functional
Candida albicans [2] = test: Anti-fungal activity against Candida albicans CPCC 400523 by broth microdilution method; assay type: functional
Cryptococcus neoformans = test: Anti-fungal activity against Cryptococcus neoformans CGMCC 2.3161 by broth microdilution method; assay type: functional
Aspergillus fumigatus = test: Anti-fungal activity against Aspergillus fumigatus CGMCC 3.7795 by broth microdilution method; assay type: functional
Candida tropicalis = test: Anti-fungal activity against Candida tropicalis CGMCC 2.3739 by broth microdilution method; assay type: functional
Candida albicans [3] = test: Anti-fungal activity against fluconazole-resistant Candida albicans 100 by broth microdilution method; assay type: functional
Candida albicans [4] = test: Anti-fungal activity against fluconazole-resistant Candida albicans 103 by broth microdilution method; assay type: functional
[5] = molecular target: T1, Lanosterol 14-alpha demethylase (Candida albicans (strain SC5314 / ATCC MYA-2876) (Yeast), UniProt P10613); test: Inhibition of Candida albicans SC5314 CYP51 assessed as ergosterol composition of total sterols at 8 ug/ml by GC-MS method (reference value: 89.4 %); design: scale not given: the % may be the effect or the level left; details: at 8 µg/mL
[6] = molecular target: T1, Lanosterol 14-alpha demethylase; test: Inhibition of Candida albicans SC5314 CYP51 assessed as obtusifoliol composition of total sterols at 8 ug/ml by GC-MS method relative to control; design: scale not given: the % may be the effect or the level left; details: at 8 µg/mL
[7] = molecular target: T1, Lanosterol 14-alpha demethylase; test: Inhibition of Candida albicans SC5314 CYP51 assessed as lanosterol composition of total sterols at 8 ug/ml by GC-MS method (reference value: 3.5 %); design: scale not given: the % may be the effect or the level left; details: at 8 µg/mL
[8] = molecular target: T1, Lanosterol 14-alpha demethylase; test: Inhibition of Candida albicans SC5314 CYP51 assessed as eburicol composition of total sterols at 8 ug/ml by GC-MS method relative to control; design: scale not given: the % may be the effect or the level left; details: at 8 µg/mL
[9] = molecular target: T1, Lanosterol 14-alpha demethylase; test: Inhibition of Candida albicans SC5314 CYP51 assessed as change in total sterol composition at 8 ug/ml by GC-MS method (reference value: 7.1 %); design: scale not given: the % may be the effect or the level left; details: at 8 µg/mL

T1 sequence (P10613 whole entry): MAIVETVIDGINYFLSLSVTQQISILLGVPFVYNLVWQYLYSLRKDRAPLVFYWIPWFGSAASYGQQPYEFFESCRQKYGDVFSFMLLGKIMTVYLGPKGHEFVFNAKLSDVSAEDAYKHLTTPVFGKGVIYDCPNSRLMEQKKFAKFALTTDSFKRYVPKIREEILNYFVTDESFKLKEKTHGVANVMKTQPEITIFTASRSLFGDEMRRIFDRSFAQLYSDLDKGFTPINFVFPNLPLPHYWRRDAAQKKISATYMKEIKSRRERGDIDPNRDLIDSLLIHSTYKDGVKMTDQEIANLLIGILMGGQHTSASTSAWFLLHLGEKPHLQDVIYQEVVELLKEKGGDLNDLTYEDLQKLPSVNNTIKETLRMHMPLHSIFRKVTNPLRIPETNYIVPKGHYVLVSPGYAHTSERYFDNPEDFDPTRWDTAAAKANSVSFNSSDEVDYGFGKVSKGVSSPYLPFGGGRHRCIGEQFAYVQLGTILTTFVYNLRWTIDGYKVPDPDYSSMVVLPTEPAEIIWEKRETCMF

SMILES	MIC (Candida albicans [1]) [µg/mL]	MIC (Candida albicans [2]) [µg/mL]	MIC (Cryptococcus neoformans) [µg/mL]	MIC (Aspergillus fumigatus) [µg/mL]	MIC (Candida tropicalis) [µg/mL]	MIC (Candida albicans [3]) [µg/mL]	MIC (Candida albicans [4]) [µg/mL]	Activity [5] [%]	Activity [6] [%]	Activity [7] [%]	Activity [8] [%]	Activity [9] [%]
COC(=O)[C@H](Cn1ccnc1)NC(=O)c1ccc(-c2ccccc2)cc1	2 (≈ 5.72 µM)	2 (≈ 5.72 µM)	> 16	> 16	0.25 (≈ 0.716 µM)							
CC(C)OC(=O)[C@H](Cn1ccnc1)NC(=O)c1ccc(-c2ccc(C(F)(F)F)cc2)cc1	> 16	> 16	> 16	> 16	2 (≈ 4.49 µM)							
CC(C)OC(=O)[C@H](Cn1ccnc1)NC(=O)c1ccc(-c2cccc(F)c2)cc1	0.0625 (≈ 0.158 µM)	0.25 (≈ 0.632 µM)	16 (≈ 40.5 µM)	> 16	0.0625 (≈ 0.158 µM)							
CC(C)COC(=O)[C@H](Cn1cncn1)NC(=O)c1ccc(-c2ccccc2)cc1	1 (≈ 2.55 µM)	8 (≈ 20.4 µM)	16 (≈ 40.8 µM)	> 16	4 (≈ 10.2 µM)							
COC(=O)[C@H](Cn1ccnc1)NC(=O)c1ccc(-c2ccccc2F)cc1	16 (≈ 43.6 µM)	16 (≈ 43.6 µM)	2 (≈ 5.44 µM)	> 16	4 (≈ 10.9 µM)							
CC(C)OC(=O)[C@H](Cn1ccnc1)NC(=O)c1ccc(-c2ccc(Cl)cc2)cc1	0.25 (≈ 0.607 µM)	1 (≈ 2.43 µM)	16 (≈ 38.8 µM)	> 16	0.25 (≈ 0.607 µM)							
CC(C)COC(=O)[C@H](Cn1ccnc1)NC(=O)c1ccc(-c2ccccc2Cl)cc1	0.5 (≈ 1.17 µM)	2 (≈ 4.7 µM)	16 (≈ 37.6 µM)	> 16	0.5 (≈ 1.17 µM)							
CC(C)OC(=O)[C@H](Cn1ccnc1)NC(=O)c1ccc(-c2ccccc2Cl)cc1	0.25 (≈ 0.607 µM)	1 (≈ 2.43 µM)	16 (≈ 38.8 µM)	> 16	0.5 (≈ 1.21 µM)							
CCCOC(=O)[C@H](Cn1ccnc1)NC(=O)c1ccc(-c2ccccc2F)cc1	0.125 (≈ 0.316 µM)	0.25 (≈ 0.632 µM)	0.5 (≈ 1.26 µM)	> 16	0.0625 (≈ 0.158 µM)							
CC(C)COC(=O)[C@H](Cn1ccnc1)NC(=O)c1ccc(-c2ccccc2)cc1	0.0312 (≈ 0.0798 µM)	0.25 (≈ 0.639 µM)	1 (≈ 2.55 µM)	> 16	0.0312 (≈ 0.0798 µM)							
CC(C)OC(=O)[C@H](Cn1ccnc1)NC(=O)c1ccc(-c2cccc(C#N)c2)cc1	> 16	> 16	> 16	> 16	8 (≈ 19.9 µM)							
Cc1ccccc1-c1ccc(C(=O)N[C@@H](Cn2ccnc2)C(=O)OC(C)C)cc1	0.5 (≈ 1.28 µM)	2 (≈ 5.11 µM)	16 (≈ 40.9 µM)	> 16	2 (≈ 5.11 µM)							
CC(C)OC(=O)[C@H](Cn1ccnc1)NC(=O)c1ccc(-c2ccc(F)c(F)c2)cc1	> 16	> 16	> 16	> 16	8 (≈ 19.4 µM)							
CCOC(=O)[C@H](Cn1ccnc1)NC(=O)c1ccc(-c2ccccc2F)cc1	0.25 (≈ 0.655 µM)	1 (≈ 2.62 µM)	1 (≈ 2.62 µM)	> 16	0.125 (≈ 0.328 µM)							
CC(C)NC(=O)[C@H](Cn1ccnc1)NC(=O)c1ccc(-c2ccccc2)cc1	> 16	> 16	> 16	> 16	> 16							
CC(C)CNC(=O)[C@H](Cn1ccnc1)NC(=O)c1ccc(-c2ccccc2)cc1	> 16	> 16	> 16	> 16	> 16							
CC(C)OC(=O)[C@H](Cn1ccnc1)NC(=O)c1ccc(-c2ccccc2F)cc1	0.0625 (≈ 0.158 µM)	0.25 (≈ 0.632 µM)	1 (≈ 2.53 µM)	> 16	0.0625 (≈ 0.158 µM)	8 (≈ 20.2 µM)	4 (≈ 10.1 µM)					
Cc1ccccc1-c1ccc(C(=O)N[C@@H](Cn2ccnc2)C(=O)OCC(C)C)cc1	> 16	> 16	> 16	> 16	4 (≈ 9.86 µM)							
CC(C)OC(=O)[C@H](Cn1ccnc1)NC(=O)c1ccc(-c2ccc(F)cc2F)cc1	1 (≈ 2.42 µM)	2 (≈ 4.84 µM)	8 (≈ 19.4 µM)	> 16	0.5 (≈ 1.21 µM)							
CC(C)OC(=O)[C@H](Cn1ccnc1)NC(=O)c1ccc(-c2cc(F)ccc2F)cc1	0.25 (≈ 0.605 µM)	1 (≈ 2.42 µM)	16 (≈ 38.7 µM)	> 16	0.0625 (≈ 0.151 µM)							
Cc1ccc(-c2ccc(C(=O)N[C@@H](Cn3ccnc3)C(=O)OC(C)C)cc2)cc1	0.0625 (≈ 0.16 µM)	0.5 (≈ 1.28 µM)	4 (≈ 10.2 µM)	> 16	0.0625 (≈ 0.16 µM)							
CC(C)OC(=O)[C@H](Cn1cncn1)NC(=O)c1ccc(-c2ccccc2)cc1	0.25 (≈ 0.661 µM)	4 (≈ 10.6 µM)	16 (≈ 42.3 µM)	> 16	2 (≈ 5.28 µM)							
CC(C)OC(=O)[C@H](Cn1ccnc1)NC(=O)c1ccc(-c2ccc(OC(F)(F)F)cc2)cc1	0.125 (≈ 0.271 µM)	0.125 (≈ 0.271 µM)	16 (≈ 34.7 µM)	> 16	0.5 (≈ 1.08 µM)							
CC(C)OC(=O)[C@H](Cn1ccnc1)NC(=O)c1ccc(-c2ccccc2)cc1	0.0312 (≈ 0.0828 µM)	0.25 (≈ 0.662 µM)	2 (≈ 5.3 µM)	> 16	0.0625 (≈ 0.166 µM)							
CC(C)OC(=O)[C@H](Cn1ccnc1)NC(=O)c1ccc(-c2ccc(F)cc2)cc1	1 (≈ 2.53 µM)	8 (≈ 20.2 µM)	> 16	> 16	0.5 (≈ 1.26 µM)							
CC(C)COC(=O)[C@H](Cn1ccnc1)NC(=O)c1ccc(-c2ccccc2F)cc1	0.0312 (≈ 0.0763 µM)	0.125 (≈ 0.305 µM)	0.5 (≈ 1.22 µM)	> 16	0.0312 (≈ 0.0763 µM)	2 (≈ 4.88 µM)	4 (≈ 9.77 µM)	2.5	6.6	19.6	65.1	6.2
OC(Cn1cncn1)(Cn1cncn1)c1ccc(F)cc1F [FLUCONAZOLE]	0.5 (≈ 1.63 µM)	1 (≈ 3.27 µM)	4 (≈ 13.1 µM)	> 16	1 (≈ 3.27 µM)	> 64	> 64	2	6.8	18.2	68.1	4.9
CCC(C)n1ncn(-c2ccc(N3CCN(c4ccc(OCC5COC(Cn6cncn6)(c6ccc(Cl)cc6Cl)O5)cc4)CC3)cc2)c1=O (stereo unspecified) [ITRACONAZOLE]	0.0625 (≈ 0.0886 µM)	0.25 (≈ 0.354 µM)	1 (≈ 1.42 µM)	4 (≈ 5.67 µM)	0.5 (≈ 0.709 µM)							
